Experimental data from patent US20250241890A1, “1,4-DIUREAS AND 1,4-DITHIOUREAS AND USES THEREOF” (Purdue Research Foundation, priority 2024, published 2025).

Biological target: T1, α-synuclein (α-syn) (Homo sapiens, UniProt P37840)
T1 construct: purchased rPeptide (Watkinsville, GA)
Assay: Thioflavin T (ThT) fluorescence assay of α-syn fibril formation
Assay type: biochemical
Conditions: for remaining activity at 100 µM: α-syn 2 μM final concentration, compounds at 100 μM, average of three replicates with SEM, read-out: % ThT intensity (100 μM), maximum ThT intensity in percentage
Method: Chemical and peptide source. Dimethylsulfoxide (DMSO) and thioflavin-T (ThT) were purchased from Alfa Aesar (Ward Hill, MA). Recombinant α-synuclein (α-syn) was procured from rPeptide (WatKinsville, GA). The recombinant p-tau isoform 1N4R was prepared as published previously (Fortin et al. 2021, Sui et al. 2015, Liu et al. 2020). Concerning the preparation of tau 0N4R, a bacterial expression plasmid consisting of the vector pET30a carrying a cDNA encoding the human Tau 0N4R isoform was a kind gift of Dr. Benjamin Wolozin (Boston University). E. coli stock (Rosetta BL21 E. coli (CamR) containing pET30a [0N4R tau wt] (KanR)) was grown in LB medium supplemented with kanamycin (50 μg/mL) and chloramphenicol (50 μg/mL). Protein over-expression was induced by the addition of 1 mM IPTG for ˜18 hours at 37° C., and cells were pelleted by centrifugation at 6,000 g for 15 minutes at 4° C. The cells were resuspended in lysis buffer (10 mM Hepes, pH 7.4, 50 mM NaCl, 1 mM MgCl2, 1 mM PMSF, 1× PIC, and 0.5 mM DTT) and lysed by sonication at 30 seconds “On” and 1 minute “Off” at ˜30-45% power for ˜3-5 minutes. Lysate was centrifuged at 10,000 rpm for 10 minutes at 4° C., and supernatant was transferred with 7.8 ml (total) of 3M NaCl. The lysate was incubated for 10 minutes in 80° C. water bath, then cooled for 10 minutes in an ice bath. The lysate was centrifuged at 10,000 rpm at 4° C. for 10 minutes, and the supernatant was transferred to a new tube. The supernatant was dialyzed overnight against cation exchange buffer (50 mM MES, […], 1 mM DTT, pH 6.0). The dialysate was loaded onto a HiPrep SP HP column, and proteins were eluted with a linear gradient ranging from 50 mM to 1 M NaCl. General Characterizations. ^1H and ^13C {1H} NMR spectra were recorded using a 500 MHz Bruker instrument working at a frequency of 500 MHz for ^1H and at 126 MHz for ^13C. Chemical shifts are reported in ppm using residual solvent resonances as internal reference (δ 2.50 and δ 39.51 for ^1H and ^13C in DMSO-d6, respectively). ^1H NMR data are reported as follows. b=broad, s=singlet, d=doublet, t=triplet, q=quartet, and m=multiplet. Coupling constants are given in hertz. The purity of all compounds and synthetic intermediates was judged to be 95% or better based on ^1H NMR. IR measurements were performed in a Nicolet FTIR as thin films in the Purdue Drug Discovery facility. High-resolution mass spectrometry analyses were conducted at the MSU Mass Spectrometry facility. Thioflavin fluorescence assays. […] The recombinant α-syn obtained from rPeptide has been validated with proper quality control to confirm the monomeric state of the protein. Kinetics of fibril formation have been performed using ThT as published previously.^6, 12, 13, 24 The fluorescence emission experiments were performed with the excitation and emission wavelengths set at 440 and 485 nm, respectively, with a Synergy HT multi-mode microplate reader (BioTek, Winooski, VT). Samples were measured in three replicates. Experiments were repeated three times using different α-syn stock solutions. For each time point, arbitrary units of fluorescence were calculated from the mean values normalized against the maximum value. The percentage of fluorescence intensity at the plateau phase in Table 1 was expressed as mean #SEM. Concerning the dose response curve depicted in FIG. 2, the data were plotted using GraphPad Prism. Photo-induced Cross-linking of Unmodified Proteins (PICUP) Assay. To induce oligomerization by cross-linking, α-syn (from Rpeptide, LLC) was diluted in 10 mM phosphate buffer (pH 7.4) to reach a final concentration of 50 μM. Different compounds were added to the protein solution at a final concentration of 50 μM, resulting in a molar ratio of 1:1. PICUP assays were performed with the following controls: samples without light exposition, without Ru(bpy) or ammonium persulfate, and without compound (i.e., 0.125% DMSO). […]

EC50 (Log (agonist) vs. normalized response (variable slope), Prism, α-syn 6 μM, 47 hours, 12.5, 25, 50 and 100 μM, read-out: Log EC50 (dose response curve of α-syn fibrillation, ThT) (converted)) | remaining activity at 100 µM | dose-dependent reduction of α-syn fibrillation (ThT) (α-syn 6 μM, 47 hours, 12.5, 25, 50 and 100 μM) | Compound
15.9 ± 2.8 µM | 5.3% |  | O=C(Nc1ccc(NC(=O)Nc2cccc3[nH]ccc23)cc1)Nc1cccc2[nH]ccc12 [Compound 1, 3-(1H-indol-4-yl)-1-(4-{[(1H-indol-4-yl)carbamoyl]amino}phenyl)urea]
 | 15.2% | dose-dependent reduction | S=C(Nc1ccc(NC(=S)Nc2cccc3[nH]ccc23)cc1)Nc1cccc2[nH]ccc12 [Compound 2, 3-(1H-indol-4-yl)-1-(4-{[(1H-indol-4-yl)carbamothioyl]amino}phenyl)thiourea]
 | 41.6% |  | S=C(Nc1ccc(NC(=S)Nc2cccc3cc[nH]c23)cc1)Nc1cccc2cc[nH]c12 [Compound 8, 3-(1H-indol-7-yl)-1-(4-{[(1H-indol-7-yl)carbamothioyl]amino}phenyl)thiourea]
